Measured values published in PubChem BioAssay AID330 (DTP/NCI, 2004).
Several values for one entry are separate records, joined by “and”; a condition that tells them apart may be missing. Identical values can stand only once. Toxic doses and inconclusive results are not listed. Rule for the calls: active = survival T/C of 150% or more; inactive = T/C below 125% in these data.

Tested on: P388 leukemia ip, CD2F1 mice, survival T/C
Assay: NCI In Vivo Anticancer Drug Screen. Data for tumor model P388 Leukemia (intraperitoneal) in CD2F1 (CDF1) mice
Conditions: endpoint: median survival time, higher = longer survival
Procedure, shortened: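 Mice carrying the transplanted tumor received test compound or vehicle. Survival was recorded in each group, and the value is the treated-group measurement divided by that of the vehicle-treated control group.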

[1] = dose: 50.0 mg/kg/injection, schedule: Q01DX009 (ip), vehicle: Klucel (hydroxypropylcellulose) (HPC)
[2] = dose: 50.0 mg/kg/injection, schedule: Q04DX003 (ip), vehicle: saline
[3] = dose: 100.0 mg/kg/injection, schedule: Q04DX003 (ip), vehicle: saline
[4] = dose: 6.25 mg/kg/injection, schedule: Q01DX009 (ip), vehicle: saline with Tween-80
[5] = dose: 12.5 mg/kg/injection, schedule: Q01DX009 (ip), vehicle: saline with Tween-80
[6] = dose: 25.0 mg/kg/injection, schedule: Q01DX009 (ip), vehicle: saline with Tween-80
[7] = dose: 60.0 mg/kg/injection, schedule: Q01DX005 (ip), vehicle: saline with Tween-80
[8] = dose: 60.0 mg/kg/injection, schedule: Q01DX005 (ip), vehicle: saline
[9] = dose: 120.0 mg/kg/injection, schedule: Q01DX005 (ip), vehicle: saline with Tween-80
[10] = dose: 120.0 mg/kg/injection, schedule: Q01DX005 (ip), vehicle: saline
[11] = dose: 240.0 mg/kg/injection, schedule: Q01DX005 (ip), vehicle: saline with Tween-80
[12] = dose: 240.0 mg/kg/injection, schedule: Q01DX005 (ip), vehicle: saline
[13] = dose: 25.0 mg/kg/injection, schedule: Q04DX003 (ip), vehicle: saline with Tween-80
[14] = dose: 50.0 mg/kg/injection, schedule: Q04DX003 (ip), vehicle: saline with Tween-80
[15] = dose: 12.5 mg/kg/injection, schedule: Q01DX005 (ip), vehicle: saline with Tween-80
[16] = dose: 25.0 mg/kg/injection, schedule: Q01DX005 (ip), vehicle: saline with Tween-80
[17] = dose: 50.0 mg/kg/injection, schedule: Q01DX005 (ip), vehicle: saline with Tween-80
[18] = dose: 6.25 mg/kg/injection, schedule: Q01DX005 (ip), vehicle: saline with Tween-80

Measured: T/C

[CH3][Sn]([Cl])([Cl])[c]1ccccc1
inactive: dose: 1.56 mg/kg/injection, schedule: Q04DX003 (ip), vehicle: saline 114 % of control | dose: 3.12 mg/kg/injection, schedule: Q04DX003 (ip), vehicle: saline 109 % of control | dose: 6.25 mg/kg/injection, schedule: Q04DX003 (ip), vehicle: saline 106 % of control and 117 % of control

c1ccc2c(c1)ncc1cccn12
inactive: [1] 106 % of control | dose: 100.0 mg/kg/injection, schedule: Q01DX009 (ip), vehicle: Klucel (hydroxypropylcellulose) (HPC) 107 % of control | dose: 200.0 mg/kg/injection, schedule: Q01DX009 (ip), vehicle: Klucel (hydroxypropylcellulose) (HPC) 105 % of control | dose: 400.0 mg/kg/injection, schedule: Q01DX009 (ip), vehicle: Klucel (hydroxypropylcellulose) (HPC) 106 % of control

Cc1cc(=O)oc2c3c4c(cc12)CCCN4CCC3
inactive: dose: 100.0 mg/kg/injection, schedule: Q04DX003 (ip), vehicle: Klucel (hydroxypropylcellulose) (HPC) 111 % of control | dose: 200.0 mg/kg/injection, schedule: Q04DX003 (ip), vehicle: Klucel (hydroxypropylcellulose) (HPC) 109 % of control

CC(C)=CCC/C(C)=C/CC/C(C)=C/CC/C(C)=C/C=C/C=C(\C)CC/C=C(\C)CC/C=C(\C)CCC=C(C)C
inactive: dose: 17.5 mg/kg/injection, schedule: Q01DX005 (ip), vehicle: saline 101 % of control | dose: 35.0 mg/kg/injection, schedule: Q01DX005 (ip), vehicle: saline 100 % of control | dose: 70.0 mg/kg/injection, schedule: Q01DX005 (ip), vehicle: saline 95 % of control | dose: 140.0 mg/kg/injection, schedule: Q01DX005 (ip), vehicle: saline 104 % of control

O=CC1C(=O)NC(=O)NC1=O
inactive: dose: 25.0 mg/kg/injection, schedule: Q04DX003 (ip), vehicle: saline 112 % of control | [2] 100 % of control | [3] 114 % of control

CC(C)(C)C1=CC(=O)C(C#N)=C(C#N)C1=O
inactive: [4] 95 % of control | [5] 109 % of control | [6] 100 % of control

OC1COC(Sc2ncc[nH]2)C(O)C1O (stereo not given)
inactive: [7] 97 % of control | [8] 96 % of control | [9] 97 % of control | [10] 97 % of control | [11] 94 % of control | [12] 97 % of control

COc1ccc(NC(=O)C(Cl)Cl)ccc1=O
inactive: dose: 50.0 mg/kg/injection, schedule: Q01DX009 (ip), vehicle: saline with Tween-80 91 % of control

O=C1NC(=O)C(=C2C(=O)COC2=O)C(=O)N1
inactive: [8] 103 % of control | [10] 106 % of control | [12] 104 % of control

CC(=O)OCC(=O)[C@@]1(O)CC[C@H]2[C@@H]3CCC4=CC(=O)C=C[C@]4(C)[C@H]3C(=O)C[C@@]21C
inactive: [13] 95 % of control | [14] 104 % of control | dose: 100.0 mg/kg/injection, schedule: Q04DX003 (ip), vehicle: saline with Tween-80 95 % of control

C/C(CCl)=N/NC1=NC(C)(CCC2(C)N=C(N/N=C(/C)CCl)SP2(=O)NC23CC4CC(CC(C4)C2)C3)P(=O)(NC23CC4CC(CC(C4)C2)C3)S1 (stereo not given)
inactive: [7] 105 % of control | [9] 100 % of control | [11] 91 % of control

NCC(OCCCC(=O)O)C(Cl)(Cl)Cl (stereo not given)
inactive: dose: 50.0 mg/kg/injection, schedule: Q01DX009 (ip), vehicle: saline 93 % of control | dose: 100.0 mg/kg/injection, schedule: Q01DX009 (ip), vehicle: saline 101 % of control | dose: 200.0 mg/kg/injection, schedule: Q01DX009 (ip), vehicle: saline 100 % of control

Cc1ccc(C#N)s1
inactive: dose: 3.12 mg/kg/injection, schedule: Q01DX009 (ip), vehicle: saline with Tween-80 104 % of control | [4] 103 % of control | [5] 102 % of control | [6] 95 % of control

Cc1cc2c(cc1NCc1ccccc1)C(C)C(=O)CCC(=O)N2Cc1ccccc1 (stereo not given)
inactive: [15] 101 % of control | [16] 99 % of control | [17] 90 % of control and 94 % of control

O=S1(=O)CCCCC1
inactive: [2] 100 % of control | [3] 100 % of control | dose: 200.0 mg/kg/injection, schedule: Q04DX003 (ip), vehicle: saline 110 % of control

C=CCC1C=CC=CN1C(=O)OCC (stereo not given)
inactive: [8] 113 % of control | [10] 113 % of control | [12] 98 % of control

CC(O)C1OC(O)C2OC(C)(C)OC12 (stereo not given)
inactive: [8] 98 % of control | [10] 95 % of control | [12] 98 % of control

Cc1ccc2nc(N(C)C)nc-2c2[nH]c(=O)[nH]c12
inactive: dose: 8.25 mg/kg/injection, schedule: Q01DX005 (ip), vehicle: saline 110 % of control | dose: 16.5 mg/kg/injection, schedule: Q01DX005 (ip), vehicle: saline 110 % of control | dose: 33.0 mg/kg/injection, schedule: Q01DX005 (ip), vehicle: saline 107 % of control | dose: 66.0 mg/kg/injection, schedule: Q01DX005 (ip), vehicle: saline 102 % of control

CCC(=O)NC1=CCC(C(C)(C)C)CC1 (stereo not given)
inactive: [17] 102 % of control | dose: 100.0 mg/kg/injection, schedule: Q01DX005 (ip), vehicle: saline with Tween-80 102 % of control

NC(=O)CC(NC(c1ccccc1)(c1ccccc1)c1ccccc1)C(=O)ON1C(=O)CCC1=O (stereo not given)
inactive: dose: 25.0 mg/kg/injection, schedule: Q01DX001 (ip), vehicle: saline with Tween-80 104 % of control | dose: 50.0 mg/kg/injection, schedule: Q01DX001 (ip), vehicle: saline with Tween-80 100 % of control | dose: 100.0 mg/kg/injection, schedule: Q01DX001 (ip), vehicle: saline with Tween-80 100 % of control

Cc1n[nH]c(=O)c2cc3oc4ccccc4c3n12
inactive: [7] 100 % of control | [9] 94 % of control | [11] 92 % of control

CCOC(=O)c1cnc(NCCCCCCNc2ncc(C(=O)OCC)c(=O)[nH]2)[nH]c1=O
inactive: dose: 50.0 mg/kg/injection, schedule: Q01DX005 (ip), vehicle: Klucel (hydroxypropylcellulose) (HPC) 97 % of control | dose: 100.0 mg/kg/injection, schedule: Q01DX005 (ip), vehicle: Klucel (hydroxypropylcellulose) (HPC) 91 % of control

C[n+]1ccc(I)c2ccc(Cl)cc21
inactive: dose: 12.5 mg/kg/injection, schedule: Q01DX009 (ip), vehicle: Klucel (hydroxypropylcellulose) (HPC) 101 % of control | dose: 25.0 mg/kg/injection, schedule: Q01DX009 (ip), vehicle: Klucel (hydroxypropylcellulose) (HPC) 104 % of control | [1] 109 % of control

CCC[CH2][Sn]1([CH2]CCC)[O]C(=O)CC[S]1
inactive: dose: 3.13 mg/kg/injection, schedule: Q01DX005 (ip), vehicle: saline with Tween-80 121 % of control | [18] 115 % of control and 120 % of control | [15] 121 % of control

CCCCCCCCP(=O)(N1CC1C)N1CC1C (stereo not given)
inactive: dose: 3.13 mg/kg/injection, schedule: Q01DX009 (ip), vehicle: saline 109 % of control | dose: 6.25 mg/kg/injection, schedule: Q01DX009 (ip), vehicle: saline 109 % of control | [5] 122 % of control | dose: 12.5 mg/kg/injection, schedule: Q01DX009 (ip), vehicle: saline 109 % of control | dose: 12.5 mg/kg/injection, schedule: Q04DX003 (ip), vehicle: saline with Tween-80 100 % of control | [13] 95 % of control | [14] 109 % of control | [2] 108 % of control

Cc1ccc(S(=O)(=O)Nc2ccc(-c3cc4cc(Cl)ccc4o3)cc2)cc1
inactive: [18] 92 % of control | [15] 91 % of control | [16] 87 % of control
